From patent US20140094413A1, “HEPATOCYTE GROWTH FACTOR (HGF) MIMICS AS THERAPEUTIC AGENTS” (WASHINGTON STATE UNIVERSITY, priority 2012, published 2014)
“Also recorded” adds a separate entry of the source. Counter-ions that a name gives are not always drawn. Where a SMILES comes first, the peptide text is derived from it. [ ]: non-standard residue; d: D form. dNle = CCCC[C@@H](N)C(=O)O; Ahx = NCCCCCC(=O)O

Experiments:
human HGF [1] = target: T1, human HGF (Homo sapiens, UniProt P14210); test: HGF binding, competition with 3H-Hinge; settings: 1.25 ng HGF, 40 min at 37° C.; N=9
T1 construct: purchased R&D Systems (Minneapolis, Minn.)
T1 sequence (P14210 32-728): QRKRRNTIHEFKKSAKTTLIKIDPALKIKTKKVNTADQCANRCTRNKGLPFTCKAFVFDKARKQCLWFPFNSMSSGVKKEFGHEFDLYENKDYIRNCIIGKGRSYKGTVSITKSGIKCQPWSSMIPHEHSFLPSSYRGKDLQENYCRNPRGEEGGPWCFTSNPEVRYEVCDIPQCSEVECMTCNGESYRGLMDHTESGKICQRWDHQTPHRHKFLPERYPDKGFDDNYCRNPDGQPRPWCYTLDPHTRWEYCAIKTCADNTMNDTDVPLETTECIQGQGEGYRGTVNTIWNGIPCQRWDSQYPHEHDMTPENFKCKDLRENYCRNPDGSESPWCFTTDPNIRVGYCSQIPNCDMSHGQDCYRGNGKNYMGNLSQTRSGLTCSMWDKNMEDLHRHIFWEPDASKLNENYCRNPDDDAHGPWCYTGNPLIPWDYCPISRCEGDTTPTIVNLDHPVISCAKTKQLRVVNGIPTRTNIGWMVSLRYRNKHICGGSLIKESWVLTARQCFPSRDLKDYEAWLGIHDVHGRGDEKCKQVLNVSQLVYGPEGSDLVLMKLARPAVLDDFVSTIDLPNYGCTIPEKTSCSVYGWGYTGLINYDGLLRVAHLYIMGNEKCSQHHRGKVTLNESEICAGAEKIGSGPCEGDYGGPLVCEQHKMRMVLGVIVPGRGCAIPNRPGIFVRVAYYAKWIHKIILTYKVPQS
Protocol: The binding of 6-AH analogs to HGF was assessed by competition using a soluble binding assay. 250 μl of PBS containing human HGF (1.25 ng) were incubated with ^3H-Hinge, the central dimerization domain of HGF, in the presence of varying concentrations of 6-AH analogs between 10^−13 M to 10^−7M (half-log dilutions) for 40 min at 37° C. The incubates were then spun through Bio-Gel P6 spin columns (400 μl packed volume) for 1 min to separate free and bound ^3H-Hinge and the eluent was collected. Five milliliters of scintillation fluid was added to the eluent, which contained the HGF bound ^3H-Hinge, and was then counted using scintillation counter. Total disintegrations per minute of bound ^3H-Hinge were calculated based on machine counting efficiency. The Ki values for the binding of the peptides were determined using the Prism 5. Competition binding curves were performed in triplicate.

human HGF [2] = target: T1, human HGF; test: HGF dimerization; assay type: biochemical; settings: analogs at 10^−10 M, heparin, 30 minute incubation
Protocol: HGF dimerization was assessed using PAGE followed by silver staining (Kawas et al., 2011). Human HGF at a concentration of 0.08 ng/μl with or without 6-AH analogs was incubated with heparin at a final concentration of 5 μg/ml. Loading buffer was then added to each sample and the mixture separated by native PAGE using gradient Criterion XT precast gels (4-12% Bis-Tris; Biorad Laboratories, Hercules, Calif.). Next the gel was silver stained for the detection of the HGF monomers and dimers. Bands were quantitated from digital images using a UVP phosphoimager (Upland, Calif.).

Met = test: Inhibition of HGF-dependent Met phosphorylation in HEK293 cells; assay type: cell-based, human; settings: 10 min with HGF+/− analog
Protocol: HEK293 cells were seeded in 6 well tissue culture plates and grown to 95% confluency in DMEM containing 10% FBS. The cells were serum deprived for 24 h prior to the treatment to reduce the basal levels of phospho-Met. Following serum starvation, cocktails comprised of vehicle and HGF with/without 6-AH analogs were prepared and pre-incubated for 30 min at room temperature. The cocktail was then added to the cells for 10 min to stimulate the Met receptor and downstream proteins. Cells were harvested using RIPA lysis buffer (Millipore; Billerica, Mass.) fortified with phosphatase inhibitor cocktails 1 and 2 (Sigma-Aldrich; St. Louis, Mo.). The lysate was clarified by centrifugation at 15,000 nx g for 15 min, protein concentrations were determined using the BCA total protein assay (Pierce), and then appropriate volumes of the lysates were diluted with 2× reducing Laemmli buffer and heated for ten min at 95° C. Samples containing identical amounts of protein were resolved using SDS-PAGE (Criterion, BioRad Laboratories), transferred to nitrocellulose, and blocked in Tris-buffered saline (TBS) containing 5% milk for 1 h at room temperature. The phospho-Met antibody were added to the blocking buffer at a final concentration of 1:1000 and incubated at 4° C. overnight with gentle agitation. The membranes were then washed several times with water and TBS ([…], 0.05% Tween-20), a 1:5000 dilution of horseradish-peroxidase conjugated goat anti-rabbit antiserum was added, and the membranes further incubated for 1 h at room temperature. Proteins were visualized using the Supersignal West Pico Chemiluminescent Substrate system (Pierce, Fenton, Mo.) and molecular weights determined by comparison to protein ladders (BenchMark, Invitrogen, and Kaleidoscope, BioRad). Film images were digitized and analyzed using a UVP phosphoimager.

MDCK cells [3] = test: Inhibition of HGF-dependent scattering in MDCK cells; assay type: cell-based, canine; settings: HGF 20 ng/ml, 48 h
Protocol: MDCK cells were grown to 100% confluency on the coverslips in six-well plates and washed twice with PBS. The confluent coverslips were then aseptically transferred to new six well plates containing 900 μl serum free DMEM. Norleual, Hinge peptide, and/or HGF (20 ng/ml) were added to appropriate wells. Control wells received PBS vehicle. Plates were incubated at 37° C. with 5% CO2 for 48 h. Media was removed and cells were fixed with methanol. Cells were stained with Diff-Quik Wright-Giemsa (Dade-Behring, Newark, Del.) and digital images were taken. Coverslips were removed with forceps and more digital images were captured. Pixel quantification of images was achieved using Image J and statistics were performed using Prism 5 and InStat v.3.05 (GraphPad; San Diego, Calif.).

MDCK cells [4] = test: HGF-dependent MDCK cell proliferation (MTT); assay type: cell-based, canine; settings: analogs at 10^−10M, HGF 10 ng/ml, 4 days
Protocol: 5000 MDCK cells were seeded into the wells of a 96 well plates in 10% FBS DMEM. To induce cellular quiescence, the cells were serum deprived for 24 h prior to initiating the treatments. Following serum starvation, 10 ng/ml HGF alone and with various concentrations of 6-AH analogs or PBS vehicle were added to the media. The cells were allowed to grow under these conditions for 4 days with a daily addition of 6-AH analogs. On the fourth day, 1 mg/ml of […] (MTT, Sigma-Aldrich) prepared in PBS was added to the cells and incubated for 4 h. Dimethyl sulfoxide diluted in a 0.01M glycine buffer was added to solubilize the cell membranes and the absorbance of reduced MTT in the buffer was quantitated at 590 nm using a plate reader (Biotek Synergy 2, Winooski, Vt.). HGF-dependent proliferation was determined by subtracting the basal proliferation (in the absence of HGF) from total proliferation rates in groups containing HGF.

rats = test: Morris water maze with i.c.v. Dihexa and HGF antagonist Hinge; assay type: in vivo, rat
hippocampal neurons [5] = test: Spinogenesis in mRFP-β-actin transfected dissociated hippocampal neurons; assay type: cell-based, rat
Protocol: (§1) Hippocampal neurons (2×10^5 cells per square cm) were cultured from P1 Sprague Dawley rats on plates coated with poly-L-lysine from Sigma (St. Louis, Mo.; molecular weight 300,000). Hippocampal neurons were maintained in Neurobasal A media from Invitrogen (Carlsbad, Calif.) supplemented with B27 from Invitrogen, 0.5 mM L-glutamine, and […] cytosine-D-arabinofuranoside from Sigma added at 2 days in vitro. Hippocampal neurons were then cultured a further 3-7 days, at which time they were either transfected or treated with various pharmacological reagents as described in (Wayman, Davare et al. 2008).
(§2) Neurons were transfected with mRFP-β-actin on day in vitro 6 (DIV6) using LipofectAMINE™ 2000 (Invitrogen) according to the manufacturer's protocol. This protocol yielded the desired 3-5% transfection efficiency thus enabling the visualization of individual neurons. Higher efficiencies obscured the dendritic arbor of individual neurons. Expression of fluorescently tagged actin allowed clear visualization of dendritic spines, as dendritic spines are enriched in actin. […] On DIV 12 the neurons were fixed (4% paraformaldehyde, 3% sucrose, 60 mM PIPES, 25 mM HEPES, 5 mM EGTA, 1 mM MgCl2, pH 7.4) for 20 min at room temperature and mounted. Slides were dried for at least 20 hours at 4° C. and fluorescent images were obtained with Slidebook 4.2 Digital Microscopy Software driving an Olympus IX81 inverted confocal microscope with a 60× oil immersion lens, NA 1.4 and resolution 0.280 μm Dendritic spine density was measured on primary and secondary dendrites at a distance of at least 150 μm from the soma. Five 50 μm long segments of dendrite from at least 10 neurons per data point were analyzed for each data point reported. Each experiment was repeated at least three times using independent culture preparations. Dendrite length was determined using the National Institutes of Health's Image J 1.41o program (NIH, Bethesda, Md.) and the neurite tracing program Neuron J (Meijering, Jacob et al. 2004) Spines were manually counted.
as §1, with “centimeter)” for “cm)”, “P1-2” for “P1”, “the text or figure legends.” for “(Wayman, Davare et al. 2008).”
as §2, with “DIV12” for “DIV 12”, “Dendrite length was determined using the National Institutes of Health's Image J 1.41o program (NIH, Bethesda, Md.) and the neurite tracing program Neuron J (Meijering, Jacob et al. 2004) Spines were manually counted.” left out

hippocampal neurons [6] = test: Whole-cell recordings of mEPSCs in dissociated hippocampal neurons; assay type: cell-based, rat; parameters: unit not given beside the values; settings: 10^−12 M (each), 5 days
scopolamine treated rats = test: Morris water maze, scopolamine amnesia model; settings: Hinge 20 ng ICV; Dihexa 2 mg/kg orally; scopolamine 70 μg ICV
Protocol: Male Sprague-Dawley rats (Taconic derived) weighing 390-450 g were maintained with free access to water and food (Harland Tekland F6 rodent diet, Madison, Wis.) except the night prior to surgery when food was removed. Each animal was anesthetized with Ketamine hydrochloride plus Xylazine (100 and 2 mg/kg im. respectively; Phoenix Scientific; St. Joseph, Mo., and Moby; Shawnee, Kans.). […] The guide cannula measured 2.5 cm in overall length and was prepared with a heat bulge placed 2.5 mm from its beveled tip, thus acting as a stop to control the depth of penetration. Once in position, the cannula was secured to the skull with two stainless-steel screws and dental cement. Post-operatively the animals were housed individually in an American Accreditation for Laboratory Animal Care-approved vivarium maintained at 22±1° C. on a 12-h alternating light/dark cycle initiated at 06:00 h. All animals were hand gentled for 5 min per day during the 5-6 days of post-surgical recovery. Histological verification of cannula placement was accomplished by the injection of 5 μl fast-green dye via the guide cannula following the completion of behavioral testing.
A black circular platform (diameter: 12 cm; height: 24 cm) was placed 30 cm from the wall and submerged 2 cm below the water surface. The maze was operationally sectioned into four equal quadrants designated NW, NE, SW, and SE. For each rat the location of the platform was randomly assigned to one of the quadrants and remained fixed throughout the duration of training. Entry points were at the quadrant corners (i.e. N, S, E, and W) and were pseudo-randomly assigned such that each trial began at a different entry point than the preceding trial. Three of the four testing room walls were covered with extra-maze spatial cues consisting of different shapes (circles, squares, triangles) and colors. The swimming path of the animals was recorded using a computerized video tracking system (Chromotrack; San Diego Instruments, CA). […] Swim speed was determined from these values.
Each member of the treatment groups in the scopolamine studies received an icy injection of scopolamine hydrobromide (70 nmol in 2 μl aCSF over a duration of 20 s) 30 min prior to testing followed by Dihexa 10 min prior to testing. Control groups received scopolamine or aCSF 20 min prior to testing followed by aCSF 10 min prior testing. […] The rats in the aged rat study on received Dihexa of aCSF (control group). Briefly, acquisition trials were conducted on 8 consecutive days with 5 trials/day. On the first day of training the animal was placed on the platform for 30 s prior to the first trial. Trials commenced with the placement of the rat facing the wall of the maze at one of the assigned entry points. […] Once the animal located the platform it was permitted a 30 s rest period on the platform. […] The next trial commenced immediately following the rest period.
Following day 8 of acquisition training, one additional trial was conducted during which the platform was removed (probe trial). […] Total time spent within the target quadrant where the platform had been located during acquisition and the number of crossings of that quadrant was recorded.

[7] = aCSF followed by Hinge, no scopolamine

Compound: CCCC[C@@H](N)C(=O)N[C@@H](CCSC)C(=O)N[C@H](C(=O)NCCCCCC(N)=O)[C@@H](C)CC [D-Nle-Met-Ile-NH—(CH2)5—CONH2] (H-[dNle]MI[Ahx]-NH2)
- Ki (human HGF [1]): 138 nM
- Inhibition of HGF dimerization (human HGF [2]): unable to block dimerization at the concentration tested
- Inhibition of HGF-dependent Met phosphorylation (Met): no ability to effect on Met activation
- Inhibition of HGF-dependent Met phosphorylation (Met; listed as Met): not different than the HGF group
- Inhibition of HGF-dependent MDCK cell scattering (MDCK cells [3]): not different

Compound: CCCC[C@@H](N)C(=O)N[C@@H](Cc1c[nH]c2ccccc12)C(=O)N[C@H](C(=O)NCCCCCC(N)=O)[C@@H](C)CC [D-Nle-Trp-Ile-NH—(CH2)5—CONH2] (H-[dNle]WI[Ahx]-NH2)
- Ki (human HGF [1]): 3.37 nM
- Inhibition of HGF dimerization (human HGF [2]): intermediate inhibition of dimerization
- Inhibition of HGF dimerization (human HGF [2]; listed as Trp): statistically different than the HGF treated group
- Inhibition of HGF-dependent Met phosphorylation (Met): intermediate inhibitory activity
- Inhibition of HGF-dependent MDCK cell proliferation (MDCK cells [4]): showed inhibitory activity, albeit less than that observed with the most potent analogs
- Inhibition of HGF-dependent MDCK cell scattering (MDCK cells [3]): different from the HGF alone group but not different from the control group

Compound: CN1[C@@H]2C[C@@H](OC(=O)[C@H](CO)c3ccccc3)C[C@H]1[C@@H]1O[C@@H]12 [scopolamine, scopolamine hydrobromide]
- Mean latency to find the pedestal, day one (rats; scopolamine treated rats): 114.7 s
- Mean latency to find the pedestal, final day (day 8) (rats; scopolamine treated rats): 84.8 s
- Mean latency to find the pedestal, fourth day (rats; scopolamine treated rats): 102.4 s

Compound: DYIRNC (Synthetic hinge peptide)
- Inhibition of Dihexa-induced spinogenesis (hippocampal neurons [5]; Hinge 10^−12 M, Dihexa 10^−12 M): did effectively inhibit spine formation; also recorded: inhibits Dihexa-induced spinogenesis; also recorded: inhibits Dihexa induced spinogenesis
- Inhibition of HGF-induced spinogenesis (hippocampal neurons [5]; Hinge 10^−12 M, HGF 10 ng/ml): did effectively inhibit spine formation; also recorded: inhibits HGF-induced spinogenesis; also recorded: inhibits HGF induced spinogenesis
- Inhibition of Nle1-AngIV-induced spinogenesis (hippocampal neurons [5]; Hinge 10^−12 M, Nle1-AngIV 10^−12 M): did effectively inhibit spine formation; also recorded: inhibits Nle1-AngIV-induced spinogenesis; also recorded: inhibits Nle^1-AngIV induced spinogenesis
- Effect on basal spinogenesis (hippocampal neurons [5]; Hinge alone, wide range of doses): no effect on spinogenesis over a wide range of doses; also recorded: does not affect spinogenesis; also recorded: had no effect on basal spine levels
- mEPSC mean frequency (hippocampal neurons [6]): 4.51±0.47
- Effect on learning in the water maze (rats; Hinge alone): no effect on learning
- Mean latency to find the pedestal, day one (rats; [7]): 111.1 s
- Mean latency to find the pedestal, final day (day 8) (rats; [7]): 46.1 s
- Mean latency to find the pedestal, fourth day (rats; [7]): 78.3 s
- Blockade of Dihexa's reversal of scopolamine cognitive dysfunction (scopolamine treated rats): blocked
